Measurements reported in US11732000B2, “Oxysterols and methods of use thereof” (Sage Therapeutics, Inc., priority 2015, dated 2023).

Each molecule was assayed against T1, GlunN1/GluN2A glutamate receptors (Homo sapiens, UniProt Q05586+Q12879) (assay: NMDA potentiation, whole-cell patch clamp of mammalian cells (IonWorks Barracuda, IWB)). Settings: 3 μM test article; HEK293 cells expressing human GRIN1/GRIN2A; co-application with EC20 L-glutamate and 30 μM glycine.
T1 construct: expressed in transfected cells
Type: cell-based
Description: NMDA potentiation was assessed using either whole cell patch clamp of mammalian cells which expressed NMDA receptors.
Whole-Cell Patch Clamp of Mammalian Cells (IONWORKS BARRACUDA® (IWB))
The whole-cell patch-clamp technique was used to investigate the effects of compounds GlunN1/GluN2A glutamate receptors expressed in mammalian cells.
HEK293 cells were transformed with adenovirus 5 DNA and transfected with cDNA encoding the human GRIN1/GRIN2A genes. Stable transfectants were selected using G418 and ZEOCIN™ (phleomycins)-resistance genes incorporated into the expression plasmid and selection pressure maintained with G418 and ZEOCIN™ (phleomycins) in the medium. Cells were cultured in Dulbecco's Modified Eagle Medium/Nutrient Mixture (D-MEM/F-12) supplemented with 10% fetal bovine serum, 100 μg/ml penicillin G sodium, 100 μg/ml streptomycin sulphate, 100 μg/ml Zeocin, 5 μg/ml blasticidin and 500 μg/ml G418.
Test article effects were evaluated in 8-point concentration-response format (4 replicate wells/concentration). All test and control solutions contained 0.3% DMSO and 0.01% KOLLIPHOR® (polyethoxylated castor oil) EL (C5135, Sigma). The test article formulations were loaded in a 384-well compound plate using an automated liquid handling system (SCICLONE® ALH3000, Caliper Life Sciences). The measurements were performed using IWB platform following this procedure:
Electrophysiological Procedures:
• a) Intracellular solution (mM): 50 mM CsCl, 90 mM CsF, 2 mM MgCl2, 5 mM EGTA, 10 mM HEPES. Adjust to pH 7.2 with CsOH. • b) Extracellular solution, HB-PS (composition in mM): NaCl, 137; KCl, 1.0; CaCl2), 5; HEPES, 10; Glucose, 10; pH adjusted to 7.4 with NaOH (refrigerated until use). • c) Holding potential: −70 mV, potential during agonist/PAM application: −40 mV. Recording Procedure: • a) Extracellular buffer will be loaded into the PPC plate wells (11 μL per well). Cell suspension will be pipetted into the wells (9 μL per well) of the PPC planar electrode. • b) Whole-cell recording configuration will be established via patch perforation with membrane currents recorded by on-board patch clamp amplifiers. • c) Two recordings (scans) will be performed. First, during pre-application of test article alone (duration of pre-application −5 min) and second, during test articles and agonist (EC20 L-glutamate and 30 μM glycine) co-application to detect positive modulatory effects of the test article.
Test Article Administration: The first pre-application will consist of the addition of 20 μL of 2× concentrated test article solution and, second, of 20 μL of 1× concentrated test article and agonist at 10 μL/s (2 second total application time).

T1 sequence (Q12879 23-1464, other chains not shown): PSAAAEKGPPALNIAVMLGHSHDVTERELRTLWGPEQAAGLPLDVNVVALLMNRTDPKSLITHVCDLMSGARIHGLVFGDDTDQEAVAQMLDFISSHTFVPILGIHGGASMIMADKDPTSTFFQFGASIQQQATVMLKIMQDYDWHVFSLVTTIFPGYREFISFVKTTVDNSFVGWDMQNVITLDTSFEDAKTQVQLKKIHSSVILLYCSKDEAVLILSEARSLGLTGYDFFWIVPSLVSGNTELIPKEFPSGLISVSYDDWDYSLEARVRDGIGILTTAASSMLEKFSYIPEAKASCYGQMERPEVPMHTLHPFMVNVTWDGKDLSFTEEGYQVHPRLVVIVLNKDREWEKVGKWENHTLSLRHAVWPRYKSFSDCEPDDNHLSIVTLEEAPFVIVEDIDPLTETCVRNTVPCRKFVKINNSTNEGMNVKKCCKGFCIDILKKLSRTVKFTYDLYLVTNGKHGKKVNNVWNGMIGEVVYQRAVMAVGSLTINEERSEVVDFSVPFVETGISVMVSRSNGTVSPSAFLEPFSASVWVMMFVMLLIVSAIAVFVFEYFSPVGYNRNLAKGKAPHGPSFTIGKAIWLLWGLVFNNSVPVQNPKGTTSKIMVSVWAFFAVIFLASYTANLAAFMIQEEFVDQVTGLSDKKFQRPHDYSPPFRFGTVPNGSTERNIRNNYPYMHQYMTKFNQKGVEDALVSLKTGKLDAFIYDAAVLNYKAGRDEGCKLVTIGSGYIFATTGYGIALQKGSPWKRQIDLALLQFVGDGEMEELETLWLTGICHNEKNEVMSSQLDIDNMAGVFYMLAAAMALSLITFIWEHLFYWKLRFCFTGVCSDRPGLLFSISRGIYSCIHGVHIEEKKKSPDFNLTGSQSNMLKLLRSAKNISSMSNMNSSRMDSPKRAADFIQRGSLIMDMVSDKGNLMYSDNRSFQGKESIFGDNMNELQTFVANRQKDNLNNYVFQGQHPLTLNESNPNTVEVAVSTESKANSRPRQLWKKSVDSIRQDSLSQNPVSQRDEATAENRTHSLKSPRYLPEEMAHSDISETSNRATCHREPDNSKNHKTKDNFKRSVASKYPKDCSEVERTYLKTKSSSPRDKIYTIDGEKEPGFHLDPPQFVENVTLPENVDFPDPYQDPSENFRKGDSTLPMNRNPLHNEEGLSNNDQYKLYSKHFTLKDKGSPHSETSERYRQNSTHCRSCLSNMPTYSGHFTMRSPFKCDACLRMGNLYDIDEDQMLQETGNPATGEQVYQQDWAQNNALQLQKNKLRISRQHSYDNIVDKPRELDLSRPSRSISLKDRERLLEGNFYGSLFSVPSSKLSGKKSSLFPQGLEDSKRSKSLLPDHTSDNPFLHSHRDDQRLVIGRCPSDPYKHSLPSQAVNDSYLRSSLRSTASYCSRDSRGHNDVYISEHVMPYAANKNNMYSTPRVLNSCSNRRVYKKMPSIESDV

`CC[C@]1(O)CC[C@@]2(C)C(=CC[C@H]3[C@@H]4CC[C@H]([C@H](C)CC[C@H](O)C5CC5)[C@@]4(C)CC[C@@H]32)C1` (single isomer, unassigned) [Compound 25] was tested, and the “GluN2A PCA IWB Ephys % potentiation at 3 μM” value was “C (“C” indicates potentiation of >150%)”.
For `CC[C@]1(O)CC[C@@]2(C)[C@@H](CC[C@@H]3[C@@H]2CC[C@]2(C)[C@@H]([C@H](C)CC[C@@H](O)C(C)C)CC[C@@H]32)C1` [Compound 15], the “GluN2A PCA IWB Ephys % potentiation at 3 μM” value was “C (“C” indicates potentiation of >150%)”.
In the case of `CC[C@]1(O)CC[C@@]2(C)C(=CC[C@H]3[C@@H]4CC[C@H]([C@H](C)CC[C@@H](O)C5CC5)[C@@]4(C)CC[C@@H]32)C1` [Compound 26], the “GluN2A PCA IWB Ephys % potentiation at 3 μM” value is reported as “C (“C” indicates potentiation of >150%)”.
In the case of `C[C@H](CC[C@H](O)C1CC1)[C@H]1CC[C@H]2[C@@H]3CC=C4C[C@@](C)(O)CC[C@]4(C)[C@H]3CC[C@]12C` [Compound 28], the “GluN2A PCA IWB Ephys % potentiation at 3 μM” value is reported as “C (“C” indicates potentiation of >150%)”.
In the case of `C[C@H](CC[C@@H](O)C1CC1)[C@H]1CC[C@H]2[C@@H]3CC=C4C[C@@](C)(O)CC[C@]4(C)[C@H]3CC[C@]12C` [Compound 29], the “GluN2A PCA IWB Ephys % potentiation at 3 μM” value is reported as “B (“B” indicates potentiation of >75% to 150%)”.
`C[C@H](CC[C@@H](O)C1CC1)[C@H]1CC[C@H]2[C@@H]3CC[C@H]4C[C@@](C)(O)CC[C@]4(C)[C@H]3CC[C@]12C` [Compound 32] was tested, and the “GluN2A PCA IWB Ephys % potentiation at 3 μM” value was “C (“C” indicates potentiation of >150%)”.
`C[C@H](CC[C@H](O)C1CCC1)[C@H]1CC[C@H]2[C@@H]3CC=C4C[C@@](C)(O)CC[C@]4(C)[C@H]3CC[C@]12C` [Compound 41-A] was tested, and the “GluN2A PCA IWB Ephys % potentiation at 3 μM” value was “C (“C” indicates potentiation of >150%)”.
In the case of `C[C@H](CC[C@H](O)C1CCOCC1)[C@H]1CC[C@H]2[C@@H]3CC=C4C[C@@](C)(O)CC[C@]4(C)[C@H]3CC[C@]12C` [Compound 44-A], the “GluN2A PCA IWB Ephys % potentiation at 3 μM” value is reported as “C (“C” indicates potentiation of >150%)”.
With `CC[C@]1(O)CC[C@@]2(C)C(=CC[C@H]3[C@@H]4CC[C@H]([C@H](C)CC[C@H](O)CC(F)(F)F)[C@@]4(C)CC[C@@H]32)C1` [Compound 53] the “GluN2A PCA IWB Ephys % potentiation at 3 μM” value was “C (“C” indicates potentiation of >150%)”.

Same assay, conditions: 3 μM test article; HEK293 cells expressing human GRIN1/GRIN2A; co-application with EC20 L-glutamate and 30 μM glycine; read-out: GluN2A PCA IWB Ephys % potentiation at 3 μM

First: CC[C@H](O)CC[C@@H](C)[C@H]1CC[C@H]2[C@@H]3CC[C@H]4C[C@@](C)(O)CC[C@]4(C)[C@H]3CC[C@]12C [Compound 9]
Second: CCC(O)CC[C@@H](C)[C@H]1CC[C@H]2[C@@H]3CC[C@H]4C[C@](O)(CC)CC[C@]4(C)[C@H]3CC[C@]12C (stereo partly shown) [Compound 34]
The activation at 3 µM of the first is lower: 75 to 150% for the first, > 150% for the second.

`CC[C@]1(O)CC[C@@]2(C)C(=CC[C@H]3[C@@H]4CC[C@H]([C@H](C)CC[C@H](O)C(C)C)[C@@]4(C)CC[C@@H]32)C1` [Compound 10] and `CC[C@]1(O)CC[C@@]2(C)C(=CC[C@H]3[C@@H]4CC[C@H]([C@H](C)CC[C@@H](O)C(C)C)[C@@]4(C)CC[C@@H]32)C1` [Compound 11] cannot be ordered by activation at 3 µM: > 150% for the first, > 150% for the second.

Compared with `CC[C@]1(O)CC[C@@]2(C)[C@@H](CC[C@@H]3[C@@H]2CC[C@]2(C)[C@@H]([C@H](C)CC[C@H](O)C(C)C)CC[C@@H]32)C1` [Compound 13], `CC[C@]1(O)CC[C@@]2(C)[C@@H](CC[C@@H]3[C@@H]2CC[C@]2(C)[C@@H]([C@H](C)CCC(C)O)CC[C@@H]32)C1` (stereo partly shown) [Compound 33] is lower in activation at 3 µM: > 150% for the first, 10 to 75% for the second.

`CC(C)[C@H](O)CC[C@@H](C)[C@H]1CC[C@H]2[C@@H]3CC=C4C[C@@](C)(O)CC[C@]4(C)[C@H]3CC[C@]12C` [Compound 19] and `C[C@H](CC[C@@H](O)C1CCC1)[C@H]1CC[C@H]2[C@@H]3CC=C4C[C@@](C)(O)CC[C@]4(C)[C@H]3CC[C@]12C` [Compound 41-B] cannot be ordered by activation at 3 µM: > 150% for the first, > 150% for the second.

`CC[C@H](O)CC[C@@H](C)[C@H]1CC[C@H]2[C@@H]3CC=C4C[C@](O)(CC)CC[C@]4(C)[C@H]3CC[C@]12C` [Compound 23] and `CC[C@]1(O)CC[C@@]2(C)C(=CC[C@H]3[C@@H]4CC[C@H]([C@H](C)CCC(O)CC(F)(F)F)[C@@]4(C)CC[C@@H]32)C1` (stereo partly shown) [Compound 52] cannot be ordered by activation at 3 µM: > 150% for the first, > 150% for the second.

`C[C@H](CCC(O)C1CC1)[C@H]1CC[C@H]2[C@@H]3CC[C@H]4C[C@@](C)(O)CC[C@]4(C)[C@H]3CC[C@]12C` (stereo partly shown) [Compound 30] and `CC[C@]1(O)CC[C@@]2(C)[C@@H](CC[C@@H]3[C@@H]2CC[C@]2(C)[C@@H]([C@H](C)CCC(O)C4CC4)CC[C@@H]32)C1` (stereo partly shown) [Compound 38] cannot be ordered by activation at 3 µM: > 150% for the first, > 150% for the second.

First: CC[C@@H](O)CC[C@@H](C)[C@H]1CC[C@H]2[C@@H]3CC[C@H]4C[C@](O)(CC)CC[C@]4(C)[C@H]3CC[C@]12C [Compound 35]
Second: CC[C@H](O)CC[C@@H](C)[C@H]1CC[C@H]2[C@@H]3CC[C@H]4C[C@](O)(CC)CC[C@]4(C)[C@H]3CC[C@]12C [Compound 36]
The activation at 3 µM of the first is lower: 75 to 150% for the first, > 150% for the second.

Compared with `CC[C@]1(O)CC[C@@]2(C)[C@@H](CC[C@@H]3[C@@H]2CC[C@]2(C)[C@@H]([C@H](C)CC[C@H](O)C4CC4)CC[C@@H]32)C1` [Compound 39], `CC[C@]1(O)CC[C@@]2(C)[C@@H](CC[C@@H]3[C@@H]2CC[C@]2(C)[C@@H]([C@H](C)CC[C@@H](O)C4CC4)CC[C@@H]32)C1` [Compound 40] is higher in activation at 3 µM: 10 to 75% for the first, > 150% for the second.

`C[C@H](CCC(O)C1CCOCC1)[C@H]1CC[C@H]2[C@@H]3CC=C4C[C@@](C)(O)CC[C@]4(C)[C@H]3CC[C@]12C` (stereo partly shown) [Compound 44] and `C[C@H](CC[C@H](O)CC(F)(F)F)[C@H]1CC[C@H]2[C@@H]3CC=C4C[C@@](C)(O)CC[C@]4(C)[C@H]3CC[C@]12C` [Compound 45] cannot be ordered by activation at 3 µM: > 150% for the first, > 150% for the second.

`C[C@H](CC[C@@H](O)CC(F)(F)F)[C@H]1CC[C@H]2[C@@H]3CC=C4C[C@@](C)(O)CC[C@]4(C)[C@H]3CC[C@]12C` [Compound 46] and `CC[C@]1(O)CC[C@@]2(C)C(=CC[C@H]3[C@@H]4CC[C@H]([C@H](C)CC[C@@H](O)CC(F)(F)F)[C@@]4(C)CC[C@@H]32)C1` [Compound 54] cannot be ordered by activation at 3 µM: > 150% for the first, > 150% for the second.

`C[C@H](CC[C@H](O)CC(F)(F)F)[C@H]1CC[C@H]2[C@@H]3CC[C@H]4C[C@@](C)(O)CC[C@]4(C)[C@H]3CC[C@]12C` [Compound 47] and `C[C@H](CC[C@@H](O)CC(F)(F)F)[C@H]1CC[C@H]2[C@@H]3CC[C@H]4C[C@@](C)(O)CC[C@]4(C)[C@H]3CC[C@]12C` [Compound 48] cannot be ordered by activation at 3 µM: > 150% for the first, > 150% for the second.
